Measurements published in US11591336B2 (Relay Therapeutics, Inc., priority 2017, dated 2023).
Structures can show the parent of a compound that is named as a salt.

Target: SHP2 (Homo sapiens (Human), UniProt Q06124)
Assay: SHP2 Allosteric Inhibition Assay (DiFMUP prompt fluorescence)
Format: biochemical
Conditions: 0.25 nM SHP2 activated with 0.5 μM peptide IRS1_pY1172(dPEG8)pY1222; substrate DiFMUP 100 μM; 25° C.

| IC50 | Compound |
| --- | --- |
| < 1000 nM | C[C@@H]1OCC2(CCN(c3cnc4c(N5CCCc6c(C7CCOCC7)cccc65)n[nH]c4n3)CC2)[C@@H]1N [Compound 251] |
| < 1000 nM | C[C@@H]1OCC2(CCN(c3cnc4c(N5CCCc6nc(-n7cccn7)ccc65)n[nH]c4n3)CC2)[C@@H]1N [Compound 252] |
| < 1000 nM | COC(=O)n1nc(N2CCCc3ncccc32)c2ncc(N3CCC4(CC3)CO[C@@H](C)[C@H]4N)nc21 [Compound 253, methyl 6-[(3S,4S)-4-amino-3-methyl-2-oxa-8-azaspiro[4.5]decan-8-yl]-3-(1,2,3,4-tetrahydro-1,5-naphthyridin-1-yl)-1H-pyrazolo[3,4-b]pyrazine-1-carboxylate hydrochloride] |
| < 1000 nM | C[C@@H]1OCC2(CCN(c3cnc4c(N5CCCc6nc(-c7cc[nH]n7)ccc65)n[nH]c4n3)CC2)[C@@H]1N [Compound 254, (3S,4S)-8-(3-(6-(1H-pyrazol-3-yl)-3,4-dihydro-1,5-naphthyridin-1(2H)-yl)-1H-pyrazolo[3,4-b]pyrazin-6-yl)-3-methyl-2-oxa-8-azaspiro[4.5]decan-4-amine] |
| < 1000 nM | C[C@@H]1OCC2(CCN(c3cnc4c(N5CCCc6nc(-c7ccnn7C)ccc65)n[nH]c4n3)CC2)[C@@H]1N [Compound 255, (3S,4S)-3-methyl-8-{3-[6-(1-methyl-1H-pyrazol-5-yl)-1,2,3,4-tetrahydro-1,5-naphthyridin-1-yl]-1H-pyrazolo[3,4-b]pyrazin-6-yl}-2-oxa-8-azaspiro[4.5]decan-4-amine hydrochloride] |
| < 1000 nM | C[C@@H]1OCC2(CCN(c3cnc4c(N5CCCc6nc(N7CCNCC7)ccc65)n[nH]c4n3)CC2)[C@@H]1N [Compound 256, (3S,4S)-3-methyl-8-{3-[6-(piperazin-1-yl)-1,2,3,4-tetrahydro-1,5-naphthyridin-1-yl]-1H-pyrazolo[3,4-b]pyrazin-6-yl}-2-oxa-8-azaspiro[4.5]decan-4-amine dihydrochloride] |
| < 1000 nM | C[C@@H]1OCC2(CCN(c3cnc4c(N5CCN(C(N)=O)c6ncccc65)n[nH]c4n3)CC2)[C@@H]1N [Compound 258, 1-{6-[(3S,4S)-4-amino-3-methyl-2-oxa-8-azaspiro[4.5]decan-8-yl]-1H-pyrazolo[3,4-b]pyrazin-3-yl}-1H,2H,3H,4H-pyrido[2,3-b]pyrazine-4-carboxamide hydrochloride] |
| < 1000 nM | C[C@@H]1OCC2(CCN(c3cnc4c(N5CCCc6nc(-c7cn[nH]c7)ccc65)n[nH]c4n3)CC2)[C@@H]1N [Compound 259] |
| < 1000 nM | C[C@@H]1OCC2(CCN(c3cnc4c(N5CCCc6nc(N7CC[C@@H](O)C7)ccc65)n[nH]c4n3)CC2)[C@@H]1N [Compound 260] |
| < 1000 nM | C[C@@H]1OCC2(CCN(c3cnc4c(N5CCCc6nc(N7CC[C@H](O)C7)ccc65)n[nH]c4n3)CC2)[C@@H]1N [Compound 261, (3S)-1-(5-{6-[(3S,4S)-4-amino-3-methyl-2-oxa-8-azaspiro[4.5]decan-8-yl]-1H-pyrazolo[3,4-b]pyrazin-3-yl}-5,6,7,8-tetrahydro-1,5-naphthyridin-2-yl)pyrrolidin-3-ol] |
| < 1000 nM | C[C@@H]1CCN(c2n[nH]c3nc(N4CCC5(CC4)CO[C@@H](C)[C@H]5N)cnc23)c2ccc(-c3cnn(C)c3)nc21 [Compound 266, (3S,4S)-3-methyl-8-{3-[(4R)-4-methyl-6-(1-methyl-1H-pyrazol-4-yl)-1,2,3,4-tetrahydro-1,5-naphthyridin-1-yl]-1H-pyrazolo[3,4-b]pyrazin-6-yl}-2-oxa-8-azaspiro[4.5]decan-4-amine] |
| < 1000 nM | C[C@@H]1OCC2(CCN(c3cnc4c(N5CCc6ncccc6C5)n[nH]c4n3)CC2)[C@@H]1N [Compound 267] |
| < 1000 nM | C[C@@H]1OCC2(CCN(c3cnc4c(N5CCc6ccccc6C5)n[nH]c4n3)CC2)[C@@H]1N [Compound 268] |
| < 1000 nM | C[C@@H]1OCC2(CCN(c3cnc4c(N5CCOc6ccccc6C5)n[nH]c4n3)CC2)[C@@H]1N [Compound 269] |
| < 1000 nM | C[C@@H]1OCC2(CCN(c3cnc4c(N5CCc6ccccc6C5=O)n[nH]c4n3)CC2)[C@@H]1N [Compound 270] |
| < 1000 nM | C[C@@H]1OCC2(CCN(c3cnc4c(N5CCc6cccnc6C5)n[nH]c4n3)CC2)[C@@H]1N [Compound 271] |
| < 1000 nM | C[C@@H]1OCC2(CCN(c3cnc4c(N5CCc6ccncc6C5)n[nH]c4n3)CC2)[C@@H]1N [Compound 272] |
| < 1000 nM | C[C@@H]1OCC2(CCN(c3cnc4c(N5CCc6cc(C#N)ccc6C5)n[nH]c4n3)CC2)[C@@H]1N [Compound 273] |
| < 1000 nM | C[C@@H]1OCC2(CCN(c3cnc4c(N5CCc6c(C#N)cccc6C5)n[nH]c4n3)CC2)[C@@H]1N [Compound 274] |
| < 1000 nM | C[C@@H]1OCC2(CCN(c3cnc4c(N5CC(=O)N(C)c6cc(C#N)ccc65)n[nH]c4n3)CC2)[C@@H]1N [Compound 275, 1-{6-[(3S,4S)-4-amino-3-methyl-2-oxa-8-azaspiro[4.5]decan-8-yl]-1H-pyrazolo[3,4-b]pyrazin-3-yl}-4-methyl-3-oxo-1,2,3,4-tetrahydroquinoxaline-6-carbonitrile] |
| < 1000 nM | C[C@@H]1OCC2(CCN(c3cnc4c(N5CCN(C)c6cnccc65)n[nH]c4n3)CC2)[C@@H]1N [Compound 276] |
| < 1000 nM | C[C@@H]1CCN(c2n[nH]c3nc(N4CCC5(CC4)CO[C@@H](C)[C@H]5N)cnc23)c2cccc(-c3cnn(C)c3)c21 [Compound 277] |
| < 1000 nM | C[C@@H]1OCC2(CCN(c3cnc4c(N5CC[C@H](C)c6c(-c7cnn(C)c7)cccc65)n[nH]c4n3)CC2)[C@@H]1N [Compound 278] |
| < 1000 nM | C[C@@H]1OCC2(CCN(c3cnc4c(N5CCCc6nc(-n7cncn7)ccc65)n[nH]c4n3)CC2)[C@@H]1N [Compound 279] |
| < 1000 nM | C[C@@H]1OCC2(CCN(c3cnc4c(N5CCCc6nc(-c7ccn(C)n7)ccc65)n[nH]c4n3)CC2)[C@@H]1N [Compound 280, (3S,4S)-3-methyl-8-{3-[6-(1-methyl-1H-pyrazol-3-yl)-1,2,3,4-tetrahydro-1,5-naphthyridin-1-yl]-1H-pyrazolo[3,4-b]pyrazin-6-yl}-2-oxa-8-azaspiro[4.5]decan-4-amine] |
| < 1000 nM | C[C@@H]1OCC2(CCN(c3cnc4c(N5CCCc6c5cccc6S(C)(=O)=O)n[nH]c4n3)CC2)[C@@H]1N [Compound 281, (3S,4S)-8-[3-(5-methanesulfonyl-1,2,3,4-tetrahydroquinolin-1-yl)-1H-pyrazolo[3,4-b]pyrazin-6-yl]-3-methyl-2-oxa-8-azaspiro[4.5]decan-4-amine] |
| < 1000 nM | CNC(=O)c1ccc2c(n1)CCCN2c1n[nH]c2nc(N3CCC4(CC3)CO[C@@H](C)[C@H]4N)cnc12 [Compound 282, 5-(6-((3S,4S)-4-amino-3-methyl-2-oxa-8-azaspiro[4.5]decan-8-yl)-1H-pyrazolo[3,4-b]pyrazin-3-yl)-N-methyl-5,6,7,8-tetrahydro-1,5-naphthyridine-2-carboxamide] |
| < 1000 nM | C[C@@H]1OCC2(CCN(c3cnc4c(N5CCC(C(F)F)c6cc(C#N)ccc65)n[nH]c4n3)CC2)[C@@H]1N (some centres unmarked) [Compound 283] |
| < 1000 nM | C[C@@H]1OCC2(CCN(c3cnc4c(N5CC[C@H](C)c6nc(-c7cnn(C)c7)ccc65)n[nH]c4n3)CC2)[C@@H]1N [Compound 284, (3S,4S)-3-methyl-8-{3-[(4S)-4-methyl-6-(1-methyl-1H-pyrazol-4-yl)-1,2,3,4-tetrahydro-1,5-naphthyridin-1-yl]-1H-pyrazolo[3,4-b]pyrazin-6-yl}-2-oxa-8-azaspiro[4.5]decan-4-amine] |
